Reference: patent publication US20240262806A1, “INHIBITORS OF NLRP3” (PTC THERAPEUTICS, INC., priority 2021, published 2024)
Like-named read-outs stand apart in the source and are kept apart here.

System: NLRP3 inflammasome
Assay: IL-1β Secretion Assay (NLRP3-dependent IL-1β secretion in PMA-differentiated THP-1 cells, nigericin activation, HTRF)
Format: cell-based
Details: 100 ng/mL PMA 24 h, compound 20 h, 2.5 μM Nigericin 3 h, read-out: IC50 IL-1β Inhibition
In short: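 PMA-differentiated THP-1 cells in RPMI with 5% FBS were treated with compounds at 7 concentrations in threefold DMSO dilutions. NLRP3 was activated with nigericin and secreted IL-1β measured by HTRF. IC50 from a logistic fit of percent inhibition versus concentration.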

[1] = Homo sapiens, THP-1, THP-1 cells

Row | SMILES | IC50 [1] | IC50 (THP-1 cells)
1 | CN1C[C@H](Nc2nnc(-c3ccc(C(F)(F)F)cc3O)c3ccncc23)CC(F)(F)C1 [Compound I-265] | 1 to 10 nM | –
2 | COc1cccc(-c2nnc(N[C@@H]3CCCN(C)C3)c3cnccc23)c1O [Compound I-73] | < 1 nM | –
3 | Cc1cc2c(-c3ccc(Br)cc3O)nnc(N[C@@H]3CCCN(C)C3)n2n1 [Compound I-334] | < 1 nM | –
4 | Cc1ccc(-c2nnc(N[C@@H]3CCCN(CC(C)(C)O)C3)n3cccc23)c(O)c1 [Compound I-367] | 10 to 100 nM | –
5 | CN1CC[C@@H](Nc2nnc(-c3ccc(C(F)(F)F)cc3O)c3c2CCCC3)C1 [Compound I-26] | 10 to 100 nM | –
6 | C[C@H](O)CNc1nnc(-c2ccc(C(F)(F)F)cc2O)c2cccn12 [Compound I-473] | 10 to 100 nM | –
7 | Oc1cc(Cl)ccc1-c1nnc(N[C@@H]2CCCN(CC(F)F)C2)n2cncc12 [Compound I-559] | 1 to 10 nM | –
8 | Cc1cc2c(-c3ccc(C(F)(F)F)cc3OC(F)F)nnc(N[C@@H]3CCCN(C)C3)n2n1 [Compound I-330] | 1 to 10 nM | –
9 | Oc1cc(C(F)(F)F)ccc1-c1nnc(N[C@H]2CNC[C@@H](F)C2)n2cccc12 [Compound I-575] | 100 to 300 nM | –
10 | Oc1cc(Cl)ccc1-c1nnc(N[C@@H]2CCC[C@H](O)C2)n2cncc12 [Compound I-578] | < 1 nM | –
11 | CN1CCC[C@@H](Nc2nnc(-c3ccc(C(F)(F)F)cc3NS(C)(=O)=O)c3ccccc23)C1 [Compound I-124] | 1 to 10 nM | –
12 | CN1C[C@H](F)C[C@@H](Nc2nnc(-c3ccc(C(F)(F)F)cc3OC(F)F)c3cncn23)C1 [Compound I-625] | 10 to 100 nM | –
13 | CN1C[C@@H](F)C[C@H](Nc2nnc(-c3ccc(C(F)(F)F)cc3O)c3ccccc23)C1 [Compound I-164] | 10 to 100 nM | –
14 | CN1CCCC(Cc2nnc(-c3ccc(C(F)(F)F)cc3O)c3cnccc23)C1 (centres unmarked) [Compound I-118, 2-(1-((1-Methylpiperidin-3-yl)methyl)pyrido[3,4-d]pyridazin-4-yl)-5-(trifluoromethyl)phenol] | 1 to 10 nM | –
15 | [2H]C([2H])([2H])Oc1cc(O)c(-c2nnc(N[C@@H]3CCCN(C)C3)n3cccc23)c(F)c1 [Compound I-513] | < 1 nM | –
16 | CN1CCC[C@H](Oc2nnc(-c3ccc(C(F)(F)F)cc3O)c3ccccc23)C1 [Compound I-22] | 100 to 300 nM | –
17 | FC(F)Oc1cc(C(F)(F)F)ccc1-c1nnc(N[C@@H]2CCCNC2)c2ccncc12 [Compound I-231] | 10 to 100 nM | –
18 | CN1CCC[C@@H](Nc2nnc(-c3c(O)cc(C4CC4)cc3F)c3c(F)ccn23)C1 [Compound I-601] | < 1 nM | –
19 | CN1C[C@H](F)C[C@@H](Nc2nnc(-c3ccc(C(F)(F)F)cc3C(F)(F)F)c3cccn23)C1 [Compound I-468] | 1 to 10 nM | –
20 | CN1CCC[C@@H](Nc2nnc(-c3ccc(Cl)cc3C(F)F)c3ccncc23)C1 [Compound I-239] | 1 to 10 nM | –
21 | CN1CCC[C@H]1CNc1nnc(-c2ccc(C(F)(F)F)cc2O)c2ccccc12 [Compound I-87] | 1 to 10 nM | –
22 | CN1CCC[C@@H](Nc2nnc(-c3ccc(C(F)(F)F)cc3O)c3cnccc23)C1 [Compound I-54] | < 1 nM | –
23 | CN1CCC[C@H](Nc2nnc(-c3ccc(Cl)cc3O)c3c2N(C)CCC3)C1 [Compound I-155] | 1 to 10 nM | –
24 | CN1CCC[C@@H](Nc2nnc(-c3ccc(-c4ncccn4)cc3O)c3ccncc23)C1 [Compound I-200] | 1 to 10 nM | –
25 | Cc1cc(O)c(-c2nnc(N[C@@H]3CCCN(C)C3)c3cnccc23)c(F)c1 [Compound I-179] | < 1 nM | –

Row | SMILES | IC50 [1] | IC50 (THP-1 cells)
26 | CC(C)N1CCC[C@@H](Nc2nnc(-c3ccc(C(F)(F)F)cc3C(F)(F)F)c3cccn23)C1 [Compound I-530] | < 1 nM | –
27 | FC(F)OCCN1CCC[C@@H](Nc2nnc(-c3ccc(C(F)(F)F)cc3OC(F)F)c3cccn23)C1 [Compound I-323, 1-[2-(difluoromethoxy)-4-(trifluoromethyl)phenyl]-N-[(3R)-1-[2-(difluoromethoxy)ethyl]-3-piperidyl]pyrrolo[1,2-d][1,2,4]triazin-4-amine] | 1 to 10 nM | –
28 | CN1C[C@H](F)C[C@@H](Nc2nnc(-c3ccc(OC(F)(F)F)cc3OC(F)F)c3cccn23)C1 [Compound I-521] | 1 to 10 nM | –
29 | Cc1cc(O)c(-c2nnc(N[C@@H]3CCCN(C)C3)c3cnccc23)c(O)c1 [Compound I-268] | < 1 nM | –
30 | CN1CCC[C@@H](Nc2nnc(-c3ccc(OC(F)(F)F)cc3O)c3cccn23)C1 [Compound I-366] | 1 to 10 nM | –
31 | Oc1cc(C(F)(F)F)ccc1-c1nnc(N[C@@H]2CCCNC2)c2cnccc12 [Compound I-35] | < 1 nM | –
32 | CN1CCC[C@@H](Nc2nnc(-c3ccc(C(F)(F)F)cc3O)c3sccc23)C1 [Compound I-4] | 1 to 10 nM | –
33 | CN1CCC[C@@H](Nc2nnc(-c3ccc(C(F)(F)F)cc3O)c3cc(C4CC4)nn23)C1 [Compound I-345] | 1 to 10 nM | –
34 | Cc1cnc(-c2nnc(N[C@@H]3CCCN(C)C3)c3cnccc23)c(O)c1 [Compound I-195] | 1 to 10 nM | –
35 | CN1CCC[C@@H](Nc2nnc(-c3ccc(C(F)(F)F)cc3S(N)(=O)=O)c3ccncc23)C1 [Compound I-156, (R)-2-(4-((1-methylpiperidin-3-yl)amino)pyrido[3,4-d]pyridazin-1-yl)-5-(trifluoromethyl)benzene-sulfonamide] | 100 to 300 nM | –
36 | CO[C@H]1CCC[C@@H](Nc2nnc(-c3ccc(C(F)(F)F)cc3O)c3ccncc23)C1 [Compound I-308] | < 1 nM | –
37 | CC(C)(O)CN1CCC[C@@H](Nc2nnc(-c3ccc(Cl)cc3O)c3cccn23)C1 [Compound I-403] | 10 to 100 nM | –
38 | O=C(c1ccc(-c2nnc(N[C@@H]3CCCNC3)c3ccccc23)c(O)c1)C(F)(F)F [Compound I-220] | 100 to 300 nM | –
39 | CN1CCC[C@@H](Nc2nnc(-c3c(F)ccc(Cl)c3O)c3ccncc23)C1 [Compound I-211] | – | 10 to 100 nM
40 | Cc1cc2c(N[C@@H]3CCCN(CCO)C3)nnc(-c3ccc(C(F)(F)F)cc3O)n2n1 [Compound I-338] | 10 to 100 nM | –
41 | Cc1cc(O)c(-c2nnc(N[C@@H]3CCC[C@H](O)C3)n3cccc23)c(F)c1 [Compound I-422] | 1 to 10 nM | –
42 | CN1CCC[C@@H](Nc2nnc(-c3ccc(C(F)(F)F)cc3O)c3cncn23)C1 [Compound I-333, 2-[4-[[(3R)-1-Methyl-3-piperidyl]amino]imidazo[1,5-d][1,2,4]triazin-1-yl]-5-(trifluoromethyl)phenol] | < 1 nM | –
43 | OCCN1CCC[C@@H](Nc2nnc(-c3ccc(C(F)(F)F)cc3OC(F)F)c3cnccc23)C1 [Compound I-238] | 10 to 100 nM | –
44 | COc1ccc(-c2nnc(N[C@@H]3CCCN(C)C3)n3c(C)ncc23)c(O)c1 [Compound I-411] | 10 to 100 nM | –
45 | CN1CCC[C@@H](Nc2nnc(-c3ccc(C(F)F)cc3F)c3ccncc23)C1 [Compound I-249] | 10 to 100 nM | –
46 | FC(F)Oc1cc(C(F)(F)F)ccc1-c1nnc(N[C@@H]2CCCNC2)c2cnccc12 [Compound I-311] | 1 to 10 nM | –
47 | CCN1CCC[C@@H](Nc2nnc(-c3ccc(Br)cc3O)c3cncn23)C1 [Compound I-628] | < 1 nM | –
48 | CCN1CCC[C@@H](Nc2nnc(-c3ccc(C(F)(F)F)cc3O)c3ccncc23)C1 [Compound I-43] | < 1 nM | –
49 | CN1CCC[C@@H](Nc2nnc(-c3ccc(O)cc3O)c3ccccc23)C1 [Compound I-15, (R)-4-(4-((1-methylpiperidin-3-yl)amino)phthalazin-1-yl)benzene-1,3-diol] | 100 to 300 nM | –
50 | Cc1ccc(-c2nnc(N[C@@H]3CCCN(C)C3)c3ccncc23)c(O)c1 [Compound I-99] | < 1 nM | –
